Like-named read-outs stand apart in the source and are kept apart here. Non-standard residues stand in square brackets, D forms with d. Residues, ends and D or L forms follow the SMILES beside them. *: point of attachment. Dolaproine = CO[C@@H]([C@@H]1CCCN1)[C@@H](C)C(=O)O; Dil = CC[C@H](C)[C@H](NC)[C@@H](CC(=O)O)OC; X1 = C[C@@H](N*)[C@@H](O)c1ccccc1; NMeV = CN[C@H](C(=O)O)C(C)C
Legend:
[1] = tested on: RAGE; assay: RAGE protein expression by immunohistochemistry in endometrial biopsies of patients taking tamoxifen; format: in vivo, human
Description: RAGE protein expression was measured by Immunohistochemistry in endometrial biopsies from patients diagnosed with endometrial hyperplasia, Type I or Type II endometrial cancer (EC), postmenopausal controls as well as breast cancer patients taking tamoxifen as part of their treatment that have developed, or not, endometrial cancer. 138 patients were grouped as follows: PM (n=25, median=0.2), Hyperplasia (n=21, median=5.5), type I EC (n=18, median=1.5), type II EC (n=17, median=2), TX no EC (n=19, median=4), type I EC plus TX (n=21, median=4) and type II EC plus TX (n=17, median=0.2).
IHC samples were scored blind by three independent observers. Values shown are median IHC scores and statistical analysis was performed using a Mann-Whitney test *p<0.05, **p<0.01, ***p<0.001, compared to PM control.

[2] = tested on: TOV112D cells; assay: Cell viability / cytotoxicity of RAGE ADCs in TOV112D ovarian cancer cells; format: cell-based, human; conditions: 24 h, free cytotoxin
Description: (§1) Endometrial (Ishikawa) or ovarian (TOV112D) cancer cells were cultured in 96-well plates and treated with an extended concentration range of MMAE, MMAF, RAGE MMAE or RAGE MMAF for 24 or 48 h. Data was analysed by non-linear regression and IC50 concentrations determined for each treatment.
Data are presented as box plots showing the median (line), 25th and 75th percentiles (box) and 10th and 90th percentile (whiskers), n=4. Data were analysed by ANOVA and Dunnett's pairwise multiple comparison t-test.
The linkers used in Examples 3 & 4 were directly compared. […] After treatment, cell viability (FIG. 17) was determined by a fluorescence-based cell viability assay (Apotox Glo Triplex assay, Promega) according to the manufacturer's instructions. […] Data were analysed by ANOVA and Dunnett's pairwise multiple comparison t-test. […]
Comparisons of the AA4, HG6 and DF6 ADCs to the SNIPER ADC were made within normal ovarian (HOSEpic) and ovarian cancer (TOV112D and SKOV3) cells, and normal endometrial (Healthy) and endometrial cancer (HEC1A, HEC1B and Ishikawa) cells. Cells were treated for 96 h with 5 μg/ml of each of the ADCs, and cell health monitored as previously described. […] Data are presented as mean (SEM), and were analysed by ANOVA and Dunnett's pairwise multiple comparison t-test.

[3] = tested on: Ishikawa cells; assay: Cell viability / cytotoxicity of RAGE ADCs in Ishikawa endometrial cancer cells; format: cell-based; conditions: Homo sapiens, read-out: IC50 of drug alone
Description: as §1
After treatment, cell viability in both cell lines (FIG. 13), and cell apoptosis in Ishikawa cells (caspase activation; FIG. 14) were determined by a fluorescence-based cell viability assay (Apotox Glo Triplex assay, Promega) according to the manufacturer's instructions. Data are presented as box plots showing the median (line), 25th and 75th percentiles (box) and 10th and 90th percentile (whiskers), n=4. Data were analysed by ANOVA and Dunnett's pairwise multiple comparison t-test. […]

Compound	RAGE expression, median IHC score ([1]; breast cancer patients taking tamoxifen, no endometrial cancer (TX no EC), n=19)	effect on endometrial RAGE expression ([1]; endometrium from EC patients taking vs not taking tamoxifen)	RAGE expression, median IHC score ([1]; type I EC plus TX, n=21)	RAGE expression, median IHC score ([1]; type II EC plus TX, n=17)	IC50 of drug alone [2]	IC50 ([3]; 24 h)	IC50 ([3]; 48 h)
CC/C(=C(\c1ccccc1)c1ccc(OCCN(C)C)cc1)c1ccccc1 [tamoxifen]	4	upregulation of RAGE	4	0.2	–	–	–
CC[C@H](C)[C@@H]([C@@H](CC(=O)N1CCC[C@H]1[C@H](OC)[C@@H](C)C(=O)N[C@H](C)[C@@H](O)c1ccccc1)OC)N(C)C(=O)[C@@H](NC(=O)[C@@H](NC)C(C)C)C(C)C [MMAE, (S)—N-((3R,4S,5S)-1-((S)-2-((1R,2R)-3-(((1S,2R)-1-hydroxy-1-phenylpropan-2-yl)amino)-1-methoxy-2-methyl-3-oxopropyl)pyrrolidin-1-yl)-3-methoxy-5-methyl-1-oxoheptan-4-yl)-N,3-dimethyl-2-((S)-3-methyl-2-(methylamino)butanamido)butanamide] (H-[NMeV]V[Dil][Dolaproine]-X1)	–	–	–	–	greater than the top concentration tested	1400 nM	460 nM
CC[C@H](C)[C@@H]([C@@H](CC(=O)N1CCC[C@H]1[C@H](OC)[C@@H](C)C(=O)N[C@@H](Cc1ccccc1)C(=O)O)OC)N(C)C(=O)[C@@H](NC(=O)[C@@H](NC)C(C)C)C(C)C [MMAF, (S)-2-((2R,3R)-3-((S)-1-((3R,4S,5S)-4-((S)—N,3-dimethyl-2-((S)-3-methyl-2-(methylamino)butanamido)butanamido)-3-methoxy-5-methylheptanoyl)pyrrolidin-2-yl)-3-methoxy-2-methylpropanamido)-3-phenylpropanoic acid] (H-[NMeV]V[Dil][Dolaproine]F-OH)	–	–	–	–	greater than the top concentration tested	1300 nM	630 nM

Source: US10406124B2, “Method of treatment of gynecological cancer with anti-RAGE antibodies” (Swansea University, priority 2014, dated 2019)
